{"source": "ChEMBL document CHEMBL5625224", "about": "“Identification of [1,2,4]Triazolo[4,3-a]pyrazine PARP1 inhibitors with overcome acquired resistance activities” (Eur J Med Chem, 2023)", "key": {"[1]": {"biological_target": "Poly [ADP-ribose] polymerase 1 (Homo sapiens, UniProt P09874)", "sequence (P09874 whole entry)": "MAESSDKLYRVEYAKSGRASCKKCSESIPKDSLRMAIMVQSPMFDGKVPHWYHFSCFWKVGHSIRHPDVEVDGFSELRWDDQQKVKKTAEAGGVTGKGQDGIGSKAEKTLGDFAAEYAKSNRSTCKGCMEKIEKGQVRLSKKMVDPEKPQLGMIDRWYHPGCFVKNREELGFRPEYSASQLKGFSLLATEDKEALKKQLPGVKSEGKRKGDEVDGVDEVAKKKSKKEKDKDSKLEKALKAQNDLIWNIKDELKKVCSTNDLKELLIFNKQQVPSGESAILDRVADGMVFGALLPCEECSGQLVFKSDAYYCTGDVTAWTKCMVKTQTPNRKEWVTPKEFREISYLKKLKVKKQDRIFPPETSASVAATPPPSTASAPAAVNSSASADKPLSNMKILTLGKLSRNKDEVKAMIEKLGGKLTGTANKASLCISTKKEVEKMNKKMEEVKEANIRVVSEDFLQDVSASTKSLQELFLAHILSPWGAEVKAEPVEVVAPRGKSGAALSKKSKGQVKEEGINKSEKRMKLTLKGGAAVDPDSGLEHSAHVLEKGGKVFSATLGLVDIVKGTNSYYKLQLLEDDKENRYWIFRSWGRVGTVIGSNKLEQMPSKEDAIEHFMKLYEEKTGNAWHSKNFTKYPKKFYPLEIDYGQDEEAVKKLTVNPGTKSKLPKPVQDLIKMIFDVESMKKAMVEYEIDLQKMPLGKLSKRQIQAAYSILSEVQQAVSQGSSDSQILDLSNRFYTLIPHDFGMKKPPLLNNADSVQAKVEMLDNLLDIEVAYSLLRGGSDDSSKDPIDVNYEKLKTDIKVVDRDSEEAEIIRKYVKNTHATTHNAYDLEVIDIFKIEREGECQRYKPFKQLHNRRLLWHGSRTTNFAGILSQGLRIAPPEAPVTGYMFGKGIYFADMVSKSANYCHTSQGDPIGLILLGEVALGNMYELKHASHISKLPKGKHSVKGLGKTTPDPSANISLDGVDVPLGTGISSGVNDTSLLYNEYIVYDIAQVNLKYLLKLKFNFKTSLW", "test": "Inhibition of PARP1 (unknown origin) incubated for 1 hr by ELISA analysis"}, "MDA-MB-436": {"system": "MDA-MB-436", "test": "Antiproliferative activity against human MDA-MB-436 BRCA1-/- cells assessed as inhibition of cell growth incubated for 7 days by CCK-8 assay", "type": "functional, cell-based", "settings": "MDA-MB-436, 168 h"}, "CAPAN-1 [2]": {"system": "CAPAN-1", "test": "Antiproliferative activity against human CAPAN-1 BRCA2-/- cells assessed as inhibition of cell growth incubated for 7 days by CCK-8 assay", "type": "functional, cell-based", "settings": "CAPAN-1, 168 h"}, "[3]": {"system": "Olaparib-resistant CAPAN-1", "test": "Antiproliferative activity against human Olaparib-resistant CAPAN-1 cells assessed as inhibition of cell growth incubated for 7 days by CCK-8 assay", "type": "functional, cell-based", "settings": "Olaparib-resistant CAPAN-1, 168 h"}, "[4]": {"test": "Antiproliferative activity against human Talazoparib-resistant CAPAN-1 cells assessed as inhibition of cell growth incubated for 7 days by CCK-8 assay", "type": "functional, cell-based", "settings": "CAPAN-1, 168 h"}, "[5]": {"test": "Antiproliferative activity against human Simmiparib-resistant CAPAN-1 cells assessed as inhibition of cell growth incubated for 7 days by CCK-8 assay", "type": "functional, cell-based", "settings": "CAPAN-1, 168 h"}, "[6]": {"biological_target": "Voltage-gated inwardly rectifying potassium channel KCNH2 (Homo sapiens, UniProt Q12809)", "sequence (Q12809 whole entry)": "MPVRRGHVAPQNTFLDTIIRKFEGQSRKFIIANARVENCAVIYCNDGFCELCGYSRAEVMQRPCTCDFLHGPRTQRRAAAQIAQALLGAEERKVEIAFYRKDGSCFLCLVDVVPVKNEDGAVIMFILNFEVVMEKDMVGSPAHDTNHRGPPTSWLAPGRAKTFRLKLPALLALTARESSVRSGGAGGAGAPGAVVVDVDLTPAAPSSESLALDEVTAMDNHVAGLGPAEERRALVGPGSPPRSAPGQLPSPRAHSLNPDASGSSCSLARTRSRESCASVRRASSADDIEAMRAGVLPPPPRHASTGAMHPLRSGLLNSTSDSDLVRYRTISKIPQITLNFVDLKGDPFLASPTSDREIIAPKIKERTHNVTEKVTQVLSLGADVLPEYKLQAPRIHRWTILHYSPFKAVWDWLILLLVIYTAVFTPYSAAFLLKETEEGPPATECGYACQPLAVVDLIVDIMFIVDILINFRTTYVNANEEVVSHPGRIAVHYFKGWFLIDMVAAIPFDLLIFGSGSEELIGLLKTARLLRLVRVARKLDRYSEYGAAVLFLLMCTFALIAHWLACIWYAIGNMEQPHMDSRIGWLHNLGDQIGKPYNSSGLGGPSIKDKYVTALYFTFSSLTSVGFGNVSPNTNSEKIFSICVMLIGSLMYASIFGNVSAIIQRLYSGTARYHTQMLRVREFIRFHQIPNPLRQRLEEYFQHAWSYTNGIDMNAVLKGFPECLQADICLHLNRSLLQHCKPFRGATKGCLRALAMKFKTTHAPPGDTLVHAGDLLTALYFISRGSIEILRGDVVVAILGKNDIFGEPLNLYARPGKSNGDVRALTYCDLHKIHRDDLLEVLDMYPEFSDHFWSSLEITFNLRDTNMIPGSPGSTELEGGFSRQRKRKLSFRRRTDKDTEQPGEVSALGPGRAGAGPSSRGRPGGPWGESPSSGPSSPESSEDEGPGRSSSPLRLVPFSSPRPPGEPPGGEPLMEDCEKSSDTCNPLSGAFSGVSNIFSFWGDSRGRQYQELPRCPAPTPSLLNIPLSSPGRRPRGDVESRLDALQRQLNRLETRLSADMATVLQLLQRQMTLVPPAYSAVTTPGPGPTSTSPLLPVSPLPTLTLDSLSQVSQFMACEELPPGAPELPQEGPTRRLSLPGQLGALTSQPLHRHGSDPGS", "test": "Inhibition of hERG", "type": "toxicity"}, "CAPAN-1 [7]": {"system": "CAPAN-1", "test": "Induction of DNA double strand breaks in human CAPAN-1 cells assessed as gamma-H2AX foci formation at 0.1 to 1 uM incubated for 24 hrs by DAPI staining based confocal microscopic analysis", "type": "functional, cell-based", "settings": "dose 0.1-1 µM"}, "CAPAN-1 [8]": {"system": "CAPAN-1", "test": "Induction of DNA double strand breaks in human CAPAN-1 cells assessed as effect on RPA32 phosphorylation at 0.1 to 1 uM incubated for 24 hrs by DAPI staining based confocal microscopic analysis", "type": "functional, cell-based", "settings": "dose 0.1-1 µM"}, "[9]": {"system": "Olaparib-resistant CAPAN-1", "test": "Induction of DNA double strand breaks in human Olaparib-resistant CAPAN-1 cells assessed as gamma-H2AX foci formation at 0.1 to 1 uM incubated for 24 hrs by DAPI staining based confocal microscopic analysis", "type": "functional, cell-based", "settings": "dose 0.1-1 µM"}, "[10]": {"system": "Olaparib-resistant CAPAN-1", "test": "Induction of DNA double strand breaks in human Olaparib-resistant CAPAN-1 cells assessed as effect on RPA32 phosphorylation at 0.1 to 1 uM incubated for 24 hrs by DAPI staining based confocal microscopic analysis", "type": "functional, cell-based", "settings": "dose 0.1-1 µM"}, "CAPAN-1 [11]": {"system": "CAPAN-1", "test": "Induction of DNA double strand breaks in human CAPAN-1 cells assessed as increase in gamma-H2AX level at 0.1 to 1 uM incubated for 24 hrs by Western blot analysis", "type": "functional, cell-based", "settings": "dose 0.1-1 µM"}, "CAPAN-1 [12]": {"system": "CAPAN-1", "test": "Induction of DNA double strand breaks in human CAPAN-1 cells assessed as increase in RPA32 phosphorylation at 0.1 to 1 uM incubated for 24 hrs by Western blot analysis", "type": "functional, cell-based", "settings": "dose 0.1-1 µM"}, "CAPAN-1 [13]": {"system": "CAPAN-1", "test": "Induction of DNA double strand breaks in human CAPAN-1 cells assessed as increase in Chk1 phosphorylation at 0.1 to 1 uM incubated for 24 hrs by Western blot analysis", "type": "functional, cell-based", "settings": "dose 0.1-1 µM"}, "CAPAN-1 [14]": {"system": "CAPAN-1", "test": "Induction of DNA double strand breaks in human CAPAN-1 cells assessed as increase in p-ATM foci formation at 0.1 to 1 uM incubated for 24 hrs by DAPI staining based confocal microscopic analysis", "type": "functional, cell-based", "settings": "dose 0.1-1 µM"}, "[15]": {"system": "Olaparib-resistant CAPAN-1", "test": "Induction of DNA double strand breaks in Olaparib-resistant human CAPAN-1 cells assessed as increase in p-ATM foci formation at 0.1 to 1 uM incubated for 24 hrs by DAPI staining based confocal microscopic analysis", "type": "functional, cell-based", "settings": "dose 0.1-1 µM"}, "CAPAN-1 [16]": {"system": "CAPAN-1", "test": "Induction of cell cycle arrest in human CAPAN-1 cells assessed as accumulation of cell at G2/M phase at 0.1 uM incubated for 24 hrs by […] staining based flow cytometry analysis", "type": "functional"}, "CAPAN-1 [17]": {"system": "CAPAN-1", "test": "Induction of cell cycle arrest in human CAPAN-1 cells assessed as accumulation of cell at S phase at 0.5 to 1 uM incubated for 24 hrs by […] staining based flow cytometry analysis", "type": "functional", "settings": "dose 0.5-1 µM"}, "[18]": {"system": "Olaparib-resistant CAPAN-1", "test": "Induction of cell cycle arrest in human Olaparib-resistant CAPAN-1 cells assessed as accumulation of cell at S phase at 0.5 to 1 uM incubated for 24 hrs by […] staining based flow cytometry analysis", "type": "functional", "settings": "dose 0.5-1 µM"}, "CAPAN-1 [19]": {"system": "CAPAN-1", "test": "Induction of apoptosis in human CAPAN-1 cells assessed as early apoptotic cells at 0.1 uM incubated for 48 hrs by Annexin-V/PI staining based flow cytometry analysis (reference value: 10.1%)", "type": "functional"}, "CAPAN-1 [20]": {"system": "CAPAN-1", "test": "Induction of apoptosis in human CAPAN-1 cells assessed as late apoptotic cells at 0.1 uM incubated for 48 hrs by Annexin-V/PI staining based flow cytometry analysis (reference value: 4.95%)", "type": "functional"}, "CAPAN-1 [21]": {"system": "CAPAN-1", "test": "Induction of apoptosis in human CAPAN-1 cells assessed as early apoptotic cells at 0.5 uM incubated for 48 hrs by Annexin-V/PI staining based flow cytometry analysis (reference value: 10.1%)", "type": "functional"}, "CAPAN-1 [22]": {"system": "CAPAN-1", "test": "Induction of apoptosis in human CAPAN-1 cells assessed as late apoptotic cells at 0.5 uM incubated for 48 hrs by Annexin-V/PI staining based flow cytometry analysis (reference value: 4.95%)", "type": "functional"}, "CAPAN-1 [23]": {"system": "CAPAN-1", "test": "Induction of apoptosis in human CAPAN-1 cells assessed as early apoptotic cells at 1 uM incubated for 48 hrs by Annexin-V/PI staining based flow cytometry analysis (reference value: 10.1%)", "type": "functional"}, "CAPAN-1 [24]": {"system": "CAPAN-1", "test": "Induction of apoptosis in human CAPAN-1 cells assessed as late apoptotic cells at 1 uM incubated for 48 hrs by Annexin-V/PI staining based flow cytometry analysis (reference value: 4.95%)", "type": "functional"}, "[25]": {"system": "Olaparib-resistant CAPAN-1", "test": "Induction of apoptosis in human Olaparib-resistant CAPAN-1 cells assessed as early apoptotic cells at 0.1 uM incubated for 48 hrs by Annexin-V/PI staining based flow cytometry analysis (reference value: 8.50%)", "type": "functional"}, "[26]": {"system": "Olaparib-resistant CAPAN-1", "test": "Induction of apoptosis in human Olaparib-resistant CAPAN-1 cells assessed as late apoptotic cells at 0.1 uM incubated for 48 hrs by Annexin-V/PI staining based flow cytometry analysis (reference value: 3.67%)", "type": "functional"}, "[27]": {"system": "Olaparib-resistant CAPAN-1", "test": "Induction of apoptosis in human Olaparib-resistant CAPAN-1 cells assessed as early apoptotic cells at 0.5 uM incubated for 48 hrs by Annexin-V/PI staining based flow cytometry analysis (reference value: 8.50%)", "type": "functional"}, "[28]": {"system": "Olaparib-resistant CAPAN-1", "test": "Induction of apoptosis in human Olaparib-resistant CAPAN-1 cells assessed as late apoptotic cells at 0.5 uM incubated for 48 hrs by Annexin-V/PI staining based flow cytometry analysis (reference value: 3.67%)", "type": "functional"}, "[29]": {"system": "Olaparib-resistant CAPAN-1", "test": "Induction of apoptosis in human Olaparib-resistant CAPAN-1 cells assessed as early apoptotic cells at 1 uM incubated for 48 hrs by Annexin-V/PI staining based flow cytometry analysis (reference value: 8.50%)", "type": "functional"}, "[30]": {"system": "Olaparib-resistant CAPAN-1", "test": "Induction of apoptosis in human Olaparib-resistant CAPAN-1 cells assessed as late apoptotic cells at 1 uM incubated for 48 hrs by Annexin-V/PI staining based flow cytometry analysis (reference value: 3.67%)", "type": "functional"}}, "note": "Calls of active or inactive are those of the source. The calls are words filed in the database; no cut-off is given here.", "data": [{"smiles": "COc1cccc(-c2nnc3n2C(C)CN(C(=O)c2cc(Cc4n[nH]c(=O)c5ccccc45)ccc2F)C3)n1", "note": "(stereo unspecified)", "values": [{"measurement": "IC50", "setting": "[1]", "result": 0.6, "unit": "nM"}, {"measurement": "IC50", "setting": "MDA-MB-436", "result": "< 0.3", "unit": "nM"}, {"measurement": "IC50", "setting": "CAPAN-1 [2]", "result": "< 0.3", "unit": "nM"}, {"measurement": "IC50", "setting": "[3]", "result": 0.3, "unit": "nM"}, {"measurement": "IC50", "setting": "[4]", "result": "< 0.3", "unit": "nM"}, {"measurement": "IC50", "setting": "[5]", "result": 0.3, "unit": "nM"}, {"measurement": "IC50", "setting": "[6]", "result": 17500, "unit": "nM"}, {"measurement": "Activity", "setting": "CAPAN-1 [7]", "result": "Active"}, {"measurement": "Activity", "setting": "CAPAN-1 [8]", "result": "Active"}, {"measurement": "Activity", "setting": "[9]", "result": "Active"}, {"measurement": "Activity", "setting": "[10]", "result": "Active"}, {"measurement": "Activity", "setting": "CAPAN-1 [11]", "result": "Active"}, {"measurement": "Activity", "setting": "CAPAN-1 [12]", "result": "Active"}, {"measurement": "Activity", "setting": "CAPAN-1 [13]", "result": "Active"}, {"measurement": "Activity", "setting": "CAPAN-1 [14]", "result": "Active"}, {"measurement": "Activity", "setting": "[15]", "result": "Active"}, {"measurement": "Activity", "setting": "CAPAN-1 [16]", "result": "Active"}, {"measurement": "Activity", "setting": "CAPAN-1 [17]", "result": "Active"}, {"measurement": "Activity", "setting": "[18]", "result": "Active"}, {"measurement": "Activity", "setting": "CAPAN-1 [19]", "result": 37.9, "unit": "%"}, {"measurement": "Activity", "setting": "CAPAN-1 [20]", "result": 17.7, "unit": "%"}, {"measurement": "Activity", "setting": "CAPAN-1 [21]", "result": 40.7, "unit": "%"}, {"measurement": "Activity", "setting": "CAPAN-1 [22]", "result": 42, "unit": "%"}, {"measurement": "Activity", "setting": "CAPAN-1 [23]", "result": 41, "unit": "%"}, {"measurement": "Activity", "setting": "CAPAN-1 [24]", "result": 43.9, "unit": "%"}, {"measurement": "Activity", "setting": "[25]", "result": 17.6, "unit": "%"}, {"measurement": "Activity", "setting": "[26]", "result": 4.6, "unit": "%"}, {"measurement": "Activity", "setting": "[27]", "result": 39.1, "unit": "%"}, {"measurement": "Activity", "setting": "[28]", "result": 29, "unit": "%"}, {"measurement": "Activity", "setting": "[29]", "result": 36.6, "unit": "%"}, {"measurement": "Activity", "setting": "[30]", "result": 30.7, "unit": "%"}]}]}
